According to publication PMC11374673, “Discovery of isoquinoline sulfonamides as allosteric gyrase inhibitors with activity against fluoroquinolone-resistant bacteria” (Nature Chemistry, 2024):
Converted amounts (≈) assume the structure as drawn. “And” between values parts separate entries of the source, which are not always exact repeats. Equal entries are not always repeated. “Also recorded” adds a separate entry of the source.

How the values were obtained:
K. pneumoniae ATCC 29665 = experiment: MIC by broth microdilution; format: cell-based, Klebsiella pneumoniae; conditions: Klebsiella pneumoniae, ATCC29665, broth microdilution; read-out: MIC K. pneumoniae ATCC 29665
Protocol: (§1) MIC was determined by broth microdilution. Single-colony cultures were grown to exponential phase (OD600 of 0.5) aerobically at 37 °C. In case of strains from the Keio collection, 50 µg ml^−1 kanamycin was supplemented to the media to ascertain a homogeneous population. The bacterial suspensions were diluted 100-fold in CAMHB and 50 µl was added to a twofold serial dilution series of test compounds (50 µl per well) in polypropylene 96-well microtitre plates to reach a volume of 100 µl. The plates were sealed with breathable membranes and incubated overnight at 37 °C with constant shaking (600 r.p.m.).

HepG2 = experiment: Cytotoxicity assay (MTT); format: cell-based, human; conditions: for IC50: MTT, 24 h
Protocol: (§2) HepG2 (ATCC HB-8065) and HEK293T (ATCC CRL-3216) cell lines were cultured at 37 °C and 7% CO2 in Dulbecco’s modified Eagle medium (Sigma-Aldrich, D6546) with GlutaMax, penicillin (100 µg ml^−1), streptomycin (100 µg ml^−1) and 10% fetal calf serum. Cells were passaged twice a week by first detaching using 0.05% trypsin in phosphate-buffered saline (PBS) and then diluting to appropriate confluence. Compound cytotoxicity was evaluated using the standard (3-(4,5-dimethylthiazol-2-yl)-2,5-diphenyltetrazolium bromide (MTT) assay protocol (MTT assay protocol for cell viability and proliferation, Merck) with slight changes. HepG2 and HEK293T cells were seeded at a density of 1.5 × 10^4 cells per well in a clear 96-well tissue culture treated plate in a final volume of 100 µl in Dulbecco’s modified Eagle medium, supplemented with fetal bovine serum (1%), GlutaMax and penicillin/streptomycin. Cells were incubated for 24 h at 37 °C, 7% CO2 to allow cells to attach to the plates. […] Incubation was done for 24 h at 37 °C, 7% CO2. After the incubation, MTT was added to each well at a final concentration of 0.40 mg ml^−1. The plates were then incubated for 2 h at 37 °C, 7% CO2. Medium was carefully removed via suction, and purple formazan crystals were resuspended in 100 µl DMSO. Absorbance was read at 570 nm using a Clariostar plate reader with MARS (V4.20). The data were then analysed with GraphPad Prism software. IC50 values were calculated using non-linear fitted curve with variable slope settings, with values adjusted for background (plotted absorbance (ABS)sample = (ABSsample – ABSbackground) / (ABSvehicle – ABSbackground)). Technical triplicates for each condition were used, along with biological duplicates.

HEK293T = experiment: Cytotoxicity assay (MTT); format: cell-based, human; conditions: for MTT data (raw readout): HEK293T; for IC50: Homo sapiens, HEK-293T, 24 h, MTT
Protocol: as §2

E. coli W3110 = experiment: MIC by broth microdilution; format: cell-based, Escherichia coli; conditions: for MIC: Escherichia coli, W3110, WT, broth microdilution, read-out: MIC E. coli W3110
Protocol: as §1

[1] = HepG2, 0.023 uM, experiment n = 1, technical triplicates
[2] = HepG2, 0.023 uM, experiment n = 2, technical triplicates
[3] = HepG2, 0.068 uM, experiment n = 1, technical triplicates
[4] = HepG2, 0.068 uM, experiment n = 2, technical triplicates
[5] = HepG2, 0.21 uM, experiment n = 1, technical triplicates
[6] = HepG2, 0.21 uM, experiment n = 2, technical triplicates
[7] = HepG2, 0.62 uM, experiment n = 1, technical triplicates
[8] = HepG2, 0.62 uM, experiment n = 2, technical triplicates
[9] = HepG2, 1.85 uM, experiment n = 1, technical triplicates
[10] = HepG2, 1.85 uM, experiment n = 2, technical triplicates
[11] = 0.023 uM, experiment n = 1, technical triplicates
[12] = 0.023 uM, experiment n = 2, technical triplicates
[13] = 0.068 uM, experiment n = 1, technical triplicates
[14] = 0.068 uM, experiment n = 2, technical triplicates
[15] = 0.21 uM, experiment n = 1, technical triplicates
[16] = 0.21 uM, experiment n = 2, technical triplicates
[17] = 0.62 uM, experiment n = 1, technical triplicates
[18] = 0.62 uM, experiment n = 2, technical triplicates
[19] = 1.85 uM, experiment n = 1, technical triplicates
[20] = 1.85 uM, experiment n = 2, technical triplicates

MIC (K. pneumoniae ATCC 29665) [µM]	Compound	MTT data (raw readout) (HepG2; [1])	MTT data (raw readout) (HepG2; [2])	MTT data (raw readout) (HepG2; [3])	MTT data (raw readout) (HepG2; [4])	MTT data (raw readout) (HepG2; [5])	MTT data (raw readout) (HepG2; [6])	MTT data (raw readout) (HepG2; [7])	MTT data (raw readout) (HepG2; [8])	MTT data (raw readout) (HepG2; [9])	MTT data (raw readout) (HepG2; [10])	IC50 (HepG2; Homo sapiens, HepG2, 24 h) [µM]	MTT data (raw readout) (HEK293T; [11])	MTT data (raw readout) (HEK293T; [12])	MTT data (raw readout) (HEK293T; [13])	MTT data (raw readout) (HEK293T; [14])	MTT data (raw readout) (HEK293T; [15])	MTT data (raw readout) (HEK293T; [16])	MTT data (raw readout) (HEK293T; [17])	MTT data (raw readout) (HEK293T; [18])	other results
12.5 (≈ 5.68 µg/mL)	O=S(=O)(NCCNCc1ccc(-c2ccc(F)nc2)c(F)c1)c1cccc2cnccc12 [Compound 89]	1.211 and 1.032 and 1.095	0.940 and 0.892 and 0.823	1.059 and 1.047 and 0.930	0.912 and 0.982 and 0.829	1.201 and 1.007 and 1.154	0.862 and 0.878 and 0.892	0.908 and 1.012 and 1.031	0.861 and 0.862 and 0.848	0.964 and 0.831 and 0.983	0.918 and 0.866 and 0.845	6.8	1.460 and 1.327 and 1.155	1.578 and 1.464 and 1.567	1.383 and 1.285 and 1.405	1.657 and 1.634 and 1.543	1.422 and 1.388 and 1.379	1.511 and 1.515 and 1.445	1.302 and 1.254 and 1.287	1.280 and 1.339 and 1.417	MTT data (raw readout) (HepG2; HepG2, 5.6 uM, experiment n = 1, technical triplicates): 0.840 and 0.880 and 0.890; MTT data (raw readout) (HepG2; HepG2, 5.6 uM, experiment n = 2, technical triplicates): 0.798 and 0.838 and 0.803; MTT data (raw readout) (HEK293T; [19]): 1.134 and 1.184 and 1.193; MTT data (raw readout) (HEK293T; [20]): 1.303 and 1.294 and 1.289; MTT data (raw readout) (HEK293T; 5.6 uM, experiment n = 1, technical triplicates): 0.891 and 0.915 and 0.826; MTT data (raw readout) (HEK293T; 5.6 uM, experiment n = 2, technical triplicates): 0.987 and 0.926 and 0.889; MTT data (raw readout) (HEK293T; 16.7 uM, experiment n = 1, technical triplicates): 0.240 and 0.299 and 0.212; MTT data (raw readout) (HEK293T; 16.7 uM, experiment n = 2, technical triplicates): 0.285 and 0.310 and 0.251; IC50 (HEK293T): 8.9 µM; MIC (E. coli W3110): 6.25 µM (≈ 2.84 µg/mL)
25 (≈ 11.6 µg/mL)	O=S(=O)(NC[C@H]1CC[C@H](c2ccc(-c3ccc(F)nc3)cc2)N1)c1cccc2cnccc12 [Compound 97]	0.311 and 0.313 and 0.321	0.270 and 0.220 and 0.207	0.289 and 0.307 and 0.326	0.263 and 0.259 and 0.236	0.296 and 0.298 and 0.289	0.257 and 0.247 and 0.226	0.322 and 0.321 and 0.315	0.242 and 0.234	0.327 and 0.348 and 0.347	0.240 and 0.213	> 100	1.365 and 1.275 and 1.431	0.941 and 0.907 and 1.040	1.367 and 1.278 and 1.395	0.968 and 0.952 and 1.040	1.452 and 1.196 and 1.181	0.930 and 0.987 and 0.817	1.160 and 1.204 and 1.255	0.874 and 0.902 and 0.863	IC50 (HepG2): > 50 µM; MTT data (raw readout) (HEK293T; [19]): 1.307 and 1.173 and 1.284; MTT data (raw readout) (HEK293T; [20]): 0.763 and 0.774 and 0.841; IC50 (HEK293T): 39 µM; MIC (E. coli W3110): 12.5 µM (≈ 5.78 µg/mL); antimicrobial activity (E. coli W3110; relative to parent compound): fourfold less active; also recorded: reduced activity
